Experiment: Release test of ganciclovir from scleral plug in phosphate buffered solution
Assay type: physicochemical
Details: phosphate buffered solution (0.1 M, pH 7.4)
Experimental: The scleral plug produced in Example 1 was shaken in a phosphate buffered solution (0.1 M, pH 7.4) to release a drug (ganciclovir). The release medium was collected at predetermined intervals and replaced with a new buffer. These operations were repeated. Absorbance of the release medium at 254 nm was measured with a spectrophotometer, and an amount of the released drug was determined.

Structure (SMILES): Nc1nc(O)c2ncn(COC(CO)CO)c2n1 [ganciclovir]
- decomposition of drug during the release test: does not decompose

From patent publication US6488938B1, “Polylactic acid scleral plug” (Santen Pharmaceutical Co., Ltd., priority 1997, dated 2002)
